From ChEMBL document CHEMBL1133396, “Construction of HIV Rev peptides containing peptide nucleic acid that bind HIV RRE IIB RNA” (Bioorg Med Chem Lett, 2000)
Peptide text beside a SMILES is read from it.

These compounds were tested against Nucleic Acid (assay: Dissociation constant against stem loop IIB region of RRE-response element RNA was reported).
Type: nucleic-acid assay, Human immunodeficiency virus 1

SMILES | Kd
C[C@H](NC(=O)[C@H](CCC(N)=O)NC(=O)[C@H](CCCNC(=N)N)NC(=O)[C@@H](NC(=O)CCC(=O)O)[C@@H](C)O)C(=O)N[C@@H](CCCNC(=N)N)C(=O)N[C@@H](CCCNC(=N)N)C(=O)N[C@@H](CC(N)=O)C(=O)N[C@@H](CCCNC(=N)N)C(=O)N[C@@H](CCCNC(=N)N)C(=O)N[C@@H](CCCNC(=N)N)C(=O)NCCN(CC(=O)N[C@@H](Cc1c[nH]c2ccccc12)C(=O)N[C@@H](CCCNC(=N)N)C(=O)N[C@@H](CCC(=O)O)C(=O)N[C@@H](CCCNC(=N)N)C(=O)N[C@@H](CCC(N)=O)C(=O)N[C@@H](CCCNC(=N)N)C(N)=O)C(=O)Cn1ccc(N)nc1=O | 240 nM
C[C@H](NC(=O)[C@H](CCC(N)=O)NC(=O)[C@H](CCCNC(=N)N)NC(=O)[C@@H](NC(=O)CCC(=O)O)[C@@H](C)O)C(=O)N[C@@H](CCCNC(=N)N)C(=O)N[C@@H](CCCNC(=N)N)C(=O)N[C@@H](CC(N)=O)C(=O)N[C@@H](CCCNC(=N)N)C(=O)N[C@@H](CCCNC(=N)N)C(=O)N[C@@H](CCCNC(=N)N)C(=O)N[C@@H](CCCNC(=N)N)C(=O)N[C@@H](Cc1c[nH]c2ccccc12)C(=O)N[C@@H](CCCNC(=N)N)C(=O)N[C@@H](CCC(=O)O)C(=O)N[C@@H](CCCNC(=N)N)C(=O)N[C@@H](CCC(N)=O)C(=O)N[C@@H](CCCNC(=N)N)C(=O)NCC(N)=O (HELM PEPTIDE1{[O=C(O)CCC(=O)[*:2]].T.R.Q.A.R.R.N.R.R.R.R.W.R.E.R.Q.R.G.[am]}$$$$V2.0) | 8 nM
C[C@H](NC(=O)[C@H](CCC(N)=O)NC(=O)[C@H](CCCNC(=N)N)NC(=O)[C@@H](NC(=O)CCC(=O)O)[C@@H](C)O)C(=O)N[C@@H](CCCNC(=N)N)C(=O)N[C@@H](CCCNC(=N)N)C(=O)N[C@@H](CC(N)=O)C(=O)N[C@@H](CCCNC(=N)N)C(=O)N[C@@H](CCCNC(=N)N)C(=O)N[C@@H](CCCNC(=N)N)C(=O)N[C@@H](CCCNC(=N)N)C(=O)N[C@@H](Cc1c[nH]c2ccccc12)C(=O)N[C@@H](CCCNC(=N)N)C(=O)N[C@@H](CCC(=O)O)C(=O)N[C@@H](CCCNC(=N)N)C(=O)N[C@@H](CCC(N)=O)C(=O)NCC(=O)NCC(N)=O (HELM PEPTIDE1{[O=C(O)CCC(=O)[*:2]].T.R.Q.A.R.R.N.R.R.R.R.W.R.E.R.Q.G.G.[am]}$$$$V2.0) | 42 nM
C[C@H](NC(=O)[C@H](CCC(N)=O)NC(=O)[C@H](CCCNC(=N)N)NC(=O)[C@@H](NC(=O)CCC(=O)O)[C@@H](C)O)C(=O)N[C@@H](CCCNC(=N)N)C(=O)N[C@@H](CCCNC(=N)N)C(=O)N[C@@H](CC(N)=O)C(=O)N[C@@H](CCCNC(=N)N)C(=O)N[C@@H](CCCNC(=N)N)C(=O)N[C@@H](CCCNC(=N)N)C(=O)N[C@@H](CCCNC(=N)N)C(=O)N[C@@H](Cc1c[nH]c2ccccc12)C(=O)N[C@@H](CCCNC(=N)N)C(=O)N[C@@H](CCC(=O)O)C(=O)N[C@@H](CCCNC(=N)N)C(=O)N[C@@H](CCC(N)=O)C(=O)NCCN(CC(N)=O)C(=O)Cn1cnc2c(N)ncnc21 (HELM PEPTIDE1{[O=C(O)CCC(=O)[*:2]].T.R.Q.A.R.R.N.R.R.R.R.W.R.E.R.Q.[NC(=O)CN(CCN[*:1])C(=O)Cn1cnc2c(N)ncnc21]}$$$$V2.0) | 10 nM
C[C@H](NC(=O)[C@H](CCC(N)=O)NC(=O)[C@H](CCCNC(=N)N)NC(=O)[C@@H](NC(=O)CCC(=O)O)[C@@H](C)O)C(=O)N[C@@H](CCCNC(=N)N)C(=O)NCCN(CC(=O)N[C@@H](CC(N)=O)C(=O)N[C@@H](CCCNC(=N)N)C(=O)N[C@@H](CCCNC(=N)N)C(=O)N[C@@H](CCCNC(=N)N)C(=O)N[C@@H](CCCNC(=N)N)C(=O)N[C@@H](Cc1c[nH]c2ccccc12)C(=O)N[C@@H](CCCNC(=N)N)C(=O)N[C@@H](CCC(=O)O)C(=O)N[C@@H](CCCNC(=N)N)C(=O)N[C@@H](CCC(N)=O)C(=O)N[C@@H](CCCNC(=N)N)C(N)=O)C(=O)Cn1ccc(N)nc1=O | 420 nM
C[C@H](NC(=O)[C@H](CCC(N)=O)NC(=O)[C@H](CCCNC(=N)N)NC(=O)[C@@H](NC(=O)CCC(=O)O)[C@@H](C)O)C(=O)N[C@@H](CCCNC(=N)N)C(=O)N[C@@H](CCCNC(=N)N)C(=O)N[C@@H](CC(N)=O)C(=O)N[C@@H](CCCNC(=N)N)C(=O)N[C@@H](CCCNC(=N)N)C(=O)N[C@@H](CCCNC(=N)N)C(=O)N[C@@H](CCCNC(=N)N)C(=O)N[C@@H](Cc1c[nH]c2ccccc12)C(=O)N[C@@H](CCCNC(=N)N)C(=O)N[C@@H](CCC(=O)O)C(=O)N[C@@H](CCCNC(=N)N)C(=O)N[C@@H](CCC(N)=O)C(=O)NCCN(CC(N)=O)C(=O)Cn1ccc(N)nc1=O (HELM PEPTIDE1{[O=C(O)CCC(=O)[*:2]].T.R.Q.A.R.R.N.R.R.R.R.W.R.E.R.Q.[NC(=O)CN(CCN[*:1])C(=O)Cn1ccc(N)nc1=O]}$$$$V2.0) | 21 nM
